Tested on: HaCaT cells
Experiment: Normalized expression of target genes in HaCaT cells stimulated with TNFα and IFNγ in presence/absence of JAK inhibitors (QuantiGene Plex)
Assay type: cell-based, human
Details: for MFI, normalized expression of IYK2: gene IYK2; for MFI, normalized expression of IYK2 / MFI, normalized expression of TNF / MFI, normalized expression of VEGFA: HaCaT, normalized to HPRT1, mean ± standard error; for MFI, normalized expression of TNF: gene TNF; for MFI, normalized expression of VEGFA: gene VEGFA
Method: Transformed human keratinocyte (HaCaT) cells were purchased from AddexBio (Catalog #T0020001) and cultured as outlined in Example 5. […] After 48 hours, cell culture media was removed from 24 well plates and replaced with 250 uL of media containing serial diluted drug, then incubated for 15 minutes at 37° C./5% CO2. After drug incubation, 250 uL of combinatory stimulation containing Recombinant Human Interferon gamma (R&D Systems, Catalog #285-IF-100) and Recombinant Human Tumor Necrosis Factor alpha (R&D Systems, Catalog #210-TA-020) was added to plates. The final concentration of Recombinant Human Interferon gamma and Recombinant Human Tumor Necrosis Factor alpha was 25 ng/mL of each cytokine. Cytokine stimulation added to wells containing drug brought the final concentrations for each drug treatment to 25 nM, 50 nM, 100 nM, and 200 nM. Treated plates were mixed by gentle agitation for 30 seconds then incubated for 24 hours at 37° C./5% CO2. At the end of the 24 hour incubation media was immediately removed from each plate.
RNA was isolated from HaCaT cells using the QuantiGene Plex Assay reagents and protocols (Affymetrix, Catalog #QGP-232-M18042302) according to the manufacturer's guidelines. Cells were washed with 1×DPBS then lysed by incubation with provided QuantiGene lysis buffer for 30 minutes at 50-55° C. Cell lysates were incubated for 18-24 hours at 55° C. with capture beads and probe set designed to specifically hybridize to mRNA from targets of interest. Genes included housekeeping genes (e.g., HPRT1 and GAPDH) used for the normalization of the results. After the 18-24 hour incubation signal was amplified utilizing branched DNA methodologies, according to the manufacturer's procedures (Affymetrix, Catalog #QGP-232-M18042302). After hybridization and wash steps assay plate was read on the Luminex 200 and data were expressed as Net Median Fluorescence Intensity. Data was then normalized to the Net Median Fluorescence Intensity of the housekeeping gene HPRT1 (Table 14).

[1] = TNFα+IFNγ 25 ng/mL, Drug Conc 25 nM
[2] = TNFα+IFNγ 25 ng/mL, Drug Conc 50 nM
[3] = TNFα+IFNγ 25 ng/mL, Drug Conc 100 nM
[4] = TNFα+IFNγ 25 ng/mL, Drug Conc 200 nM
[5] = TNFα (25 ng/mL) and IFNγ (25 ng/mL), 1st (lowest, likely 25 nM) of 4 drug conc
[6] = TNFα (25 ng/mL) and IFNγ (25 ng/mL), 2nd (likely 50 nM) of 4 drug conc
[7] = TNFα (25 ng/mL) and IFNγ (25 ng/mL), 3rd (likely 100 nM) of 4 drug conc
[8] = TNFα (25 ng/mL) and IFNγ (25 ng/mL), 4th (highest, likely 200 nM) of 4 drug conc
[9] = drug without TNFα/IFNγ stimulation
[10] = no stimulation, Drug Conc 200 nM

## Cc1n[nH]c(C)c1-c1cnn(C2(CC#N)CN(c3cc(F)c(C(=O)N[C@@H](C)C(F)(F)F)cc3F)C2)c1 [Cpd C, 4-[3-(Cyanomethyl)-3-(3′,5′-dimethyl-1H,1′H-4,4′-bipyrazol-1-yl)azetidin-1-yl]-2,5-difluoro-N-[(1S)-2,2,2-trifluoro-1-methylethyl]benzamide]
[1]
  AREG normalized expression MFI: 703.71 ± 20.69
  CCL17 normalized expression MFI: 2.63 ± 0.4
  CCL18 normalized expression MFI: 2.11 ± 0.28
  FLG normalized expression MFI: 62.5 ± 8.63
  IL6 normalized expression MFI: 135.32 ± 3.36
  IL8 normalized expression MFI: 387.86 ± 17.53
  IL17A normalized expression MFI: 0.87 ± 0.14
  IL22 normalized expression MFI: 1.23 ± 0.21
  IL23A normalized expression MFI: 42.15 ± 1.61
  IL31 normalized expression MFI: 1.52 ± 0.37
  ILIA normalized expression MFI: 1370.52 ± 35.28
  JAK1 normalized expression MFI: 206.29 ± 6.84
  JAK2 normalized expression MFI: 114.94 ± 2.16
  JAK3 normalized expression MFI: 1.02 ± 0.19
  LOR normalized expression MFI: 23.22 ± 10.14
  S100A7 normalized expression MFI: 5.33 ± 1.21
  S100A12 normalized expression MFI: 1.31 ± 0.16
  SERPINB3 normalized expression MFI: 2.58 ± 0.41
  SERPINB4 normalized expression MFI: 3.53 ± 0.5
  STAT1 normalized expression MFI: 3103.89 ± 185.88
  STAT3 normalized expression MFI: 1557.84 ± 58.15
  STAT4 normalized expression MFI: 5.65 ± 0.44
  STAT5A normalized expression MFI: 22.82 ± 1.77
  STAT5B normalized expression MFI: 40.13 ± 1.97
  STAT6 normalized expression MFI: 1020.89 ± 23.57
[2]
  AREG normalized expression MFI: 719.73 ± 30.82
  CCL17 normalized expression MFI: 2.94 ± 0.35
  CCL18 normalized expression MFI: 2.13 ± 0.46
  FLG normalized expression MFI: 59.01 ± 8.69
  IL6 normalized expression MFI: 128.14 ± 6.83
  IL8 normalized expression MFI: 369.89 ± 17.71
  IL17A normalized expression MFI: 1.07 ± 0.16
  IL22 normalized expression MFI: 1.4 ± 0.19
  IL23A normalized expression MFI: 45.16 ± 2.92
  IL31 normalized expression MFI: 1.59 ± 0.33
  ILIA normalized expression MFI: 1308.7 ± 45.12
  JAK1 normalized expression MFI: 194.2 ± 8.24
  JAK2 normalized expression MFI: 107.16 ± 2.86
  JAK3 normalized expression MFI: 0.99 ± 0.16
  LOR normalized expression MFI: 32.81 ± 17.47
  S100A7 normalized expression MFI: 3.62 ± 0.78
  S100A12 normalized expression MFI: 1.18 ± 0.18
  SERPINB3 normalized expression MFI: 2.6 ± 0.69
  SERPINB4 normalized expression MFI: 4.24 ± 1.6
  STAT1 normalized expression MFI: 3049.62 ± 159.5
  STAT3 normalized expression MFI: 1519.61 ± 69.92
  STAT4 normalized expression MFI: 5.41 ± 0.33
  STAT5A normalized expression MFI: 20.71 ± 1.77
  STAT5B normalized expression MFI: 38.42 ± 2.28
  STAT6 normalized expression MFI: 982.62 ± 14.34
[3]
  AREG normalized expression MFI: 669.44 ± 30.13
  CCL17 normalized expression MFI: 3.06 ± 0.47
  CCL18 normalized expression MFI: 2.55 ± 0.87
  FLG normalized expression MFI: 65.04 ± 9.31
  IL6 normalized expression MFI: 112.13 ± 3.37
  IL8 normalized expression MFI: 361.05 ± 16.02
  IL17A normalized expression MFI: 0.89 ± 0.16
  IL22 normalized expression MFI: 1.19 ± 0.2
  IL23A normalized expression MFI: 48.11 ± 1.85
  IL31 normalized expression MFI: 1.49 ± 0.35
  ILIA normalized expression MFI: 1194.29 ± 12.27
  JAK1 normalized expression MFI: 193.28 ± 4.55
  JAK2 normalized expression MFI: 95.51 ± 3.13
  JAK3 normalized expression MFI: 0.99 ± 0.15
  LOR normalized expression MFI: 65.94 ± 37.89
  S100A7 normalized expression MFI: 4.3 ± 1.17
  S100A12 normalized expression MFI: 1.48 ± 0.32
  SERPINB3 normalized expression MFI: 3.63 ± 1.32
  SERPINB4 normalized expression MFI: 7.56 ± 3.67
  STAT1 normalized expression MFI: 3028.93 ± 125.19
  STAT3 normalized expression MFI: 1457.24 ± 54.48
  STAT4 normalized expression MFI: 5.32 ± 0.46
  STAT5A normalized expression MFI: 18.44 ± 1.85
  STAT5B normalized expression MFI: 36.56 ± 1.18
  STAT6 normalized expression MFI: 943.66 ± 25.99
[4]
  AREG normalized expression MFI: 681.68 ± 16.1
  CCL17 normalized expression MFI: 2.59 ± 0.34
  CCL18 normalized expression MFI: 1.74 ± 0.62
  FLG normalized expression MFI: 68.26 ± 8.04
  IL6 normalized expression MFI: 101.17 ± 2.91
  IL8 normalized expression MFI: 350.6 ± 11.85
  IL17A normalized expression MFI: 0.87 ± 0.13
  IL22 normalized expression MFI: 1.14 ± 0.25
  IL23A normalized expression MFI: 51.86 ± 2.95
  IL31 normalized expression MFI: 1.32 ± 0.34
  ILIA normalized expression MFI: 1151.31 ± 20.01
  JAK1 normalized expression MFI: 182.86 ± 4.07
  JAK2 normalized expression MFI: 91.17 ± 2.15
  JAK3 normalized expression MFI: 0.85 ± 0.15
  LOR normalized expression MFI: 37.49 ± 25.57
  S100A7 normalized expression MFI: 3.95 ± 1.14
  S100A12 normalized expression MFI: 1.06 ± 0.2
  SERPINB3 normalized expression MFI: 2.14 ± 0.67
  SERPINB4 normalized expression MFI: 3.54 ± 1.5
  STAT1 normalized expression MFI: 2977.26 ± 166.85
  STAT3 normalized expression MFI: 1483.1 ± 51.73
  STAT4 normalized expression MFI: 5.04 ± 0.36
  STAT5A normalized expression MFI: 17.64 ± 1.46
  STAT5B normalized expression MFI: 36.34 ± 1.97
  STAT6 normalized expression MFI: 966.51 ± 12.3
[5]
  MFI, normalized expression of IYK2: 283.97 ± 8.59
  MFI, normalized expression of TNF: 24.07 ± 1.43
  MFI, normalized expression of VEGFA: 570.27 ± 10.88
[6]
  MFI, normalized expression of IYK2: 273.68 ± 7.44
  MFI, normalized expression of TNF: 26.51 ± 1.84
  MFI, normalized expression of VEGFA: 531.53 ± 11.24
[7]
  MFI, normalized expression of IYK2: 266 ± 6.82
  MFI, normalized expression of TNF: 25.93 ± 1.59
  MFI, normalized expression of VEGFA: 514.04 ± 7.46
[8]
  MFI, normalized expression of IYK2: 263.49 ± 5.05
  MFI, normalized expression of TNF: 24.73 ± 1.29
  MFI, normalized expression of VEGFA: 492.12 ± 8.32
[9]
  MFI, normalized expression of IYK2: 205.57 ± 10.87
  MFI, normalized expression of TNF: 2.19 ± 0.56
  MFI, normalized expression of VEGFA: 199.88 ± 6.52
[10]
  AREG normalized expression MFI: 242.5 ± 16.14
  CCL17 normalized expression MFI: 0.99 ± 0.28
  CCL18 normalized expression MFI: 1.56 ± 0.73
  FLG normalized expression MFI: 211.48 ± 29.55
  IL6 normalized expression MFI: 4.97 ± 0.36
  IL8 normalized expression MFI: 55.48 ± 3.11
  IL17A normalized expression MFI: 0.51 ± 0.1
  IL22 normalized expression MFI: 0.71 ± 0.11
  IL23A normalized expression MFI: 9.42 ± 0.97
  IL31 normalized expression MFI: 0.79 ± 0.2
  ILIA normalized expression MFI: 88.72 ± 5.9
  JAK1 normalized expression MFI: 159.13 ± 7.08
  JAK2 normalized expression MFI: 23.67 ± 0.92
  JAK3 normalized expression MFI: 0.63 ± 0.1
  LOR normalized expression MFI: 19.48 ± 9.66
  S100A7 normalized expression MFI: 4.38 ± 1.15
  S100A12 normalized expression MFI: 0.72 ± 0.18
  SERPINB3 normalized expression MFI: 2.31 ± 0.77
  SERPINB4 normalized expression MFI: 3.37 ± 1.57
  STAT1 normalized expression MFI: 522.12 ± 14.19
  STAT3 normalized expression MFI: 728.97 ± 20.48
  STAT4 normalized expression MFI: 4.01 ± 0.45
  STAT5A normalized expression MFI: 1.44 ± 0.41
  STAT5B normalized expression MFI: 50.91 ± 4.38
  STAT6 normalized expression MFI: 723.56 ± 20.76

Source: patent publication US12498382B2, “Biomarkers for vitiligo” (INCYTE CORPORATION, priority 2019, dated 2025)
